In PMC5713897 (Investigative Ophthalmology & Visual Science, 2017):
Values after ≈ are worked out from the molar mass of the structure shown. Read-outs that look alike come from different tables or passages of the source.

Legend:
[1] = cited from earlier work
[2] = system: Human Tenon fibroblast cells (HTFs)
Protocol: Human Tenon fibroblast cells (HTFs) were maintained in fibroblast culture medium composed of Dulbecco's modified Eagle's medium (DMEM) supplemented with 10% (vol/vol) fetal bovine serum (FBS), 2 mM L-glutamine, 100 IU/mL penicillin, and 100 g/mL streptomycin (all from Gibco Life Technologies, Paisley, Scotland, UK) at 37°C with 5% (vol/vol) CO2 in air. The medium was changed every 3 to 4 days until cells reached confluence. The cells were passaged at a ratio of 1:4. Cultures were used between passages 3 and 10 for the gel contraction experiments.[33]
HTF cells (7 × 10^4 cells/mL) were seeded in collagen type-1 lattice (150 μL) in a Matteck dish. […] The drug solutions were added to the lattice (2 mL) at each individual concentration and incubated at 37°C. The gels were imaged daily from day 0 to day 7, and the percent contraction was calculated based on the decrease in gel area using ImageJ software (http://imagej.nih.gov/ij/; provided in the public domain by the National Institutes of Health, Bethesda, MD, USA). […] Each formulation was tested in triplicate.

[3] = weak hydroxamic acid; cited from earlier work
[4] = Phase solubility study of ilomastat with 2-hydroxypropyl-β-cyclodextrin (HPLC); assay type: physicochemical
Protocol: The mixture was left to stir overnight.
A flow rate of 1 mL/min was used with 0.1% trifluoroacetic acid in water and acetonitrile as eluents A and B, respectively, with a linear gradient from 80% A to 70% B in 17 minutes. The detection wavelength was 280 nm.
The mixture was left to stir overnight. Benzalkonium chloride (BAC) (0.8 mg) was then added to the mixture, and the mixture was filtered (0.22 μm PES).

Row | solubility ([4]; PBS, pH 7.4, read-out: aqueous solubility in PBS (pH 7.4)) | solubility ([4]; water, read-out: aqueous solubility in water) | SMILES | water solubility ([1]; water) | inhibition of collagen gel contraction (in words) ([2]; 7-day incubation) | gel contraction ([2]; day 7, 0.01 μM ilomastat, HTFs in collagen, n = 3) | pKa [3] | solubility in balanced salt solution ([1]; balanced salt solution, 35.5°C)
1 | – | – | CC(O)COC[C@H]1O[C@@H]2O[C@H]3[C@H](O)[C@@H](O)[C@@H](O[C@H]4[C@H](O)[C@@H](O)[C@@H](O[C@H]5[C@H](O)[C@@H](O)[C@@H](O[C@H]6[C@H](O)[C@@H](O)[C@@H](O[C@H]7[C@H](O)[C@@H](O)[C@@H](O[C@H]8[C@H](O)[C@@H](O)[C@@H](O[C@H]1[C@H](O)[C@H]2O)O[C@@H]8COCC(C)O)O[C@@H]7COCC(C)O)O[C@@H]6COCC(C)O)O[C@@H]5COCC(C)O)O[C@@H]4COCC(C)O)O[C@@H]3COCC(C)O (stereo partly drawn) [2-Hydroxypropyl-β-cyclodextrin] | 450000 µg/mL (≈ 292000 µM) | – | – | – | –
2 | 160 µg/mL (≈ 412 µM) | 140 µg/mL (≈ 360 µM) | CNC(=O)[C@H](Cc1c[nH]c2ccccc12)NC(=O)[C@@H](CC(=O)NO)CC(C)C [ilomastat] | – | significantly inhibited collagen gel contraction | 51.79% ± 2.05 | 8.9 | 161 µg/mL
